Laboratory results: PubChem BioAssay (NCI)
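Values below derive from 48-hour exposures of cells grown in 96-well plates, with endpoints linearly interpolated between the two concentrations bracketing the appropriate inhibition level. GI50: concentration for 50% inhibition of growth. TGI: concentration producing complete growth inhibition.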

What was measured:
Test in all cases: NCI tumour cell line growth inhibition, 48 h
786-0 renal = system: 786-0 renal
A498 renal = system: A498 renal
A549 NSCLC = system: A549 NSCLC
ACHN renal = system: ACHN renal
BT-549 breast = system: BT-549 breast
CAKI-1 renal = system: CAKI-1 renal
CCRF-CEM leukemia = system: CCRF-CEM leukemia
COLO 205 colon = system: COLO 205 colon
DU-145 prostate = system: DU-145 prostate
EKVX NSCLC = system: EKVX NSCLC
HCC-2998 colon = system: HCC-2998 colon
HCT-116 colon = system: HCT-116 colon
HCT-15 colon = system: HCT-15 colon
HL-60(TB) leukemia = system: HL-60(TB) leukemia
HOP-62 NSCLC = system: HOP-62 NSCLC
HOP-92 NSCLC = system: HOP-92 NSCLC
HS 578T breast = system: HS 578T breast
HT29 colon = system: HT29 colon
IGROV1 ovarian = system: IGROV1 ovarian
K-562 leukemia = system: K-562 leukemia
KM12 colon = system: KM12 colon
LOX IMVI melanoma = system: LOX IMVI melanoma
M14 melanoma = system: M14 melanoma
MALME-3M melanoma = system: MALME-3M melanoma
MCF7 breast = system: MCF7 breast
MDA-MB-231 breast = system: MDA-MB-231 breast
MDA-MB-435 = system: MDA-MB-435
MOLT-4 leukemia = system: MOLT-4 leukemia
NCI-H226 lung = system: NCI-H226 lung
NCI-H460 lung = system: NCI-H460 lung
NCI-H522 lung = system: NCI-H522 lung
NCI/ADR-RES ovarian = system: NCI/ADR-RES ovarian
OVCAR-3 ovarian = system: OVCAR-3 ovarian
OVCAR-4 ovarian = system: OVCAR-4 ovarian
OVCAR-5 ovarian = system: OVCAR-5 ovarian
OVCAR-8 ovarian = system: OVCAR-8 ovarian
PC-3 prostate = system: PC-3 prostate
RPMI-8226 leukemia = system: RPMI-8226 leukemia
RXF 393 renal = system: RXF 393 renal
SF-268 CNS = system: SF-268 CNS
SF-295 CNS = system: SF-295 CNS
SF-539 CNS = system: SF-539 CNS
SK-MEL-2 melanoma = system: SK-MEL-2 melanoma
SK-MEL-28 melanoma = system: SK-MEL-28 melanoma
SK-MEL-5 melanoma = system: SK-MEL-5 melanoma
SK-OV-3 ovarian = system: SK-OV-3 ovarian
SN12C renal = system: SN12C renal
SNB-19 CNS = system: SNB-19 CNS
SNB-75 CNS = system: SNB-75 CNS
SR leukemia = system: SR leukemia
SW-620 colon = system: SW-620 colon
T-47D breast = system: T-47D breast
TK-10 renal = system: TK-10 renal
U251 CNS = system: U251 CNS
UACC-257 melanoma = system: UACC-257 melanoma
UACC-62 melanoma = system: UACC-62 melanoma
UO-31 renal = system: UO-31 renal

`O=C(CSc1nc2ccccc2c(=O)n1-c1ccc(Cl)cc1)N/N=C/c1ccc(Oc2ccc(Cl)cc2)cc1` was tested, and the GI50 (786-0 renal) was 2.51 µM, the TGI (786-0 renal) was 6.42 µM and the GI50 (A498 renal) was 1.94 µM. For the same molecule, the TGI (A498 renal) was 4.35 µM, the GI50 (A549 NSCLC) was 3.25 µM and the TGI (A549 NSCLC) was 14 µM. For the same molecule, the GI50 (ACHN renal) was 4.36 µM, the TGI (ACHN renal) was 15.2 µM and the GI50 (BT-549 breast) was 3.28 µM. For the same molecule, the TGI (BT-549 breast) was 12.2 µM, the GI50 (CAKI-1 renal) was 3.06 µM and the TGI (CAKI-1 renal) was 12 µM. It also gave a GI50 (CCRF-CEM leukemia) of 3.09 µM, a TGI (CCRF-CEM leukemia) of 48.5 µM and a GI50 (COLO 205 colon) of 2.79 µM. For the same molecule, the TGI (COLO 205 colon) was 8.74 µM, the GI50 (DU-145 prostate) was 3.52 µM and the TGI (DU-145 prostate) was 20.4 µM. It also gave a GI50 (EKVX NSCLC) of 3.1 µM, a TGI (EKVX NSCLC) of 13.9 µM and a GI50 (HCC-2998 colon) of 1.92 µM. It also gave a TGI (HCC-2998 colon) of 3.81 µM, a GI50 (HCT-116 colon) of 1.55 µM and a TGI (HCT-116 colon) of 3.74 µM. For the same molecule, the GI50 (HCT-15 colon) was 2.41 µM, the TGI (HCT-15 colon) was 7.49 µM and the GI50 (HL-60(TB) leukemia) was 16 µM. For the same molecule, the TGI (HL-60(TB) leukemia) was 37 µM, the GI50 (HOP-62 NSCLC) was 1.69 µM and the TGI (HOP-62 NSCLC) was 4.05 µM. The GI50 (HOP-92 NSCLC) was 2.07 µM, the TGI (HOP-92 NSCLC) was 5.62 µM and the GI50 (HS 578T breast) was 2.17 µM. It also gave a TGI (HS 578T breast) of 6.36 µM, a GI50 (HT29 colon) of 2.14 µM and a TGI (HT29 colon) of 11.1 µM. It also gave a GI50 (IGROV1 ovarian) of 1.51 µM, a TGI (IGROV1 ovarian) of 3.28 µM and a GI50 (K-562 leukemia) of 4.15 µM. The TGI (K-562 leukemia) was 20.2 µM, the GI50 (KM12 colon) was 2.04 µM and the TGI (KM12 colon) was 5 µM. It also gave a GI50 (LOX IMVI melanoma) of 1.29 µM, a TGI (LOX IMVI melanoma) of 2.59 µM and a GI50 (M14 melanoma) of 1.58 µM. The TGI (M14 melanoma) was 3.47 µM, the GI50 (MALME-3M melanoma) was 1.38 µM and the TGI (MALME-3M melanoma) was 2.77 µM. The GI50 (MCF7 breast) was 2.01 µM, the TGI (MCF7 breast) was 5.5 µM and the GI50 (MDA-MB-231 breast) was 1.79 µM. The TGI (MDA-MB-231 breast) was 3.9 µM, the GI50 (MDA-MB-435) was 1.93 µM and the TGI (MDA-MB-435) was 4.56 µM. It also gave a GI50 (MOLT-4 leukemia) of 2.29 µM, a TGI (MOLT-4 leukemia) of 9.23 µM and a GI50 (NCI-H226 lung) of 2.46 µM. For the same molecule, the TGI (NCI-H226 lung) was 6.59 µM, the GI50 (NCI-H460 lung) was 0.788 µM and the TGI (NCI-H460 lung) was 2.6 µM. For the same molecule, the GI50 (NCI-H522 lung) was 2.34 µM, the TGI (NCI-H522 lung) was 8.31 µM and the GI50 (NCI/ADR-RES ovarian) was 1.64 µM. It also gave a TGI (NCI/ADR-RES ovarian) of 3.56 µM, a GI50 (OVCAR-3 ovarian) of 2.75 µM and a TGI (OVCAR-3 ovarian) of 9.55 µM. It also gave a GI50 (OVCAR-4 ovarian) of 1.89 µM, a TGI (OVCAR-4 ovarian) of 4.57 µM and a GI50 (OVCAR-5 ovarian) of 2.27 µM. The TGI (OVCAR-5 ovarian) was 6.44 µM, the GI50 (OVCAR-8 ovarian) was 2.41 µM and the TGI (OVCAR-8 ovarian) was 6.56 µM. The GI50 (PC-3 prostate) was 2.58 µM, the TGI (PC-3 prostate) was 9.32 µM and the GI50 (RPMI-8226 leukemia) was 2.98 µM. The TGI (RPMI-8226 leukemia) was 15.8 µM, the GI50 (RXF 393 renal) was 1.7 µM and the TGI (RXF 393 renal) was 3.14 µM. The GI50 (SF-268 CNS) was 3.85 µM, the TGI (SF-268 CNS) was 23.9 µM and the GI50 (SF-295 CNS) was 3.61 µM. The TGI (SF-295 CNS) was 13.3 µM, the GI50 (SF-539 CNS) was 2.54 µM and the TGI (SF-539 CNS) was 6.32 µM. It also gave a GI50 (SK-MEL-2 melanoma) of 2.86 µM, a TGI (SK-MEL-2 melanoma) of 8.93 µM and a GI50 (SK-MEL-28 melanoma) of 1.51 µM. The TGI (SK-MEL-28 melanoma) was 3.01 µM, the GI50 (SK-MEL-5 melanoma) was 1.75 µM and the TGI (SK-MEL-5 melanoma) was 3.51 µM. It also gave a GI50 (SK-OV-3 ovarian) of 3.26 µM, a TGI (SK-OV-3 ovarian) of 11.9 µM and a GI50 (SN12C renal) of 1.74 µM. The TGI (SN12C renal) was 4.14 µM, the GI50 (SNB-19 CNS) was 3.36 µM and the TGI (SNB-19 CNS) was 12.7 µM. For the same molecule, the GI50 (SNB-75 CNS) was 3.99 µM, the TGI (SNB-75 CNS) was 29.2 µM and the GI50 (SR leukemia) was 1.84 µM. It also gave a TGI (SR leukemia) of 6.86 µM, a GI50 (SW-620 colon) of 1.81 µM and a TGI (SW-620 colon) of 7.84 µM. For the same molecule, the GI50 (T-47D breast) was 2.09 µM, the TGI (T-47D breast) was 5.76 µM and the GI50 (TK-10 renal) was 5.97 µM. For the same molecule, the TGI (TK-10 renal) was 40.2 µM, the GI50 (U251 CNS) was 1.65 µM and the TGI (U251 CNS) was 3.69 µM. For the same molecule, the GI50 (UACC-257 melanoma) was 4.62 µM, the TGI (UACC-257 melanoma) was 22.5 µM and the GI50 (UACC-62 melanoma) was 1.59 µM. It also gave a TGI (UACC-62 melanoma) of 3.18 µM, a GI50 (UO-31 renal) of 7.47 µM and a TGI (UO-31 renal) of 21.1 µM.
